Data taken from patent US4999444A, “Novel neutral mixed ligand platinum(II) and platinum(IV) complexes” (Warner-Lambert Co., priority 1989, dated 1991).
Where two headings read alike, the source gives them in different places.

Key:
L1210S = test: In vitro cytotoxicity (ID50, 72 h growth inhibition), L1210S; format: cell-based, murine
Procedure: (§1) ID50 values are the concentration of complex required to inhibit the in vitro growth of treated cells to a level of 50% of that for untreated cells over a 72-hour period. The cell lines are suspended in appropriate media at a concentration which results in the cells remaining in log phase growth throughout the treatment period. Serially diluted drug is added to duplicate wells containing the cell growth. After 72 hours of incubation of the cell lines in 5% CO2, the cells are counted and the ID50 values determined.

L1210PtR4 = test: In vitro cytotoxicity (ID50, 72 h growth inhibition), L1210PtR4; format: cell-based, murine; settings: for ID50: in vitro, 72 h
Procedure: as §1
(§2) Resistance ratio values shown in Table 1 were calculated by dividing the ID50 values against the resistant cell lines by the ID50 values against the normal cell lines. The resistance ratio values shown in the table indicate a measure of the degree of resistance of the cell line to a particular drug.

L1210DDP5 = test: In vitro cytotoxicity (ID50, 72 h growth inhibition), L1210DDP5; format: cell-based, murine; settings: for ID50: in vitro, 72 h
Procedure: as §1, §2

L1210DACH = test: In vitro cytotoxicity (ID50, 72 h growth inhibition), L1210DACH (Pt(DACH)Cl2-resistant L1210); format: cell-based, murine; settings: for ID50: in vitro, 72 h
Procedure: as §1, §2

P388S = test: In vitro cytotoxicity (ID50, 72 h growth inhibition), P388S; format: cell-based, murine
Procedure: as §1

P388Pt4 = test: In vitro cytotoxicity (ID50, 72 h growth inhibition), P388Pt4; format: cell-based, murine; settings: for ID50: in vitro, 72 h
Procedure: as §1, §2

L-1210 Leukemia = test: In vivo antitumor activity in mice, L-1210 Leukemia; design: species or system mice (murine leukemia); settings: IP, Days 3, 7, 11; for % T/C: best responses
Description: (§3) The screening tests employing these cell lines are described in Geran et al., "Protocols for Screening Chemical Agents and Natural Products Against Animal Tumors and Other Biological Systems," Cancer Chemotherapy Reports, Part 3, Vol. 3, No. 2, pages 1-85 (1972). The L1210 and P388 screening methods have been cited as the best tools for predicting clinical utility of drugs in the treatment of human solid tumors as well as human leukemias and lymphomas (Venditti, "Relevance of Transplantable Animal-Tumor Systems to the Selection of New Agents for Clinical Trial," Pharmacological Basis of Cancer Chemotherapy, […] Pub. Co. (1975)).
In Table 2, the ratio of median survival time of laboratory mice which had been treated with the test compound to untreated control animals is expressed as a percentage (%T/C values). […] Data for the prior art complex cisplatin is included for comparison.
^a Inoculum: 10,000 cells (IP)
^b Schedule: Days 3, 7, 11

[1] = tested on: L-1210/Pt Leukemia (Cisplatin Resistant); test: In vivo antitumor activity in mice, L-1210/Pt Leukemia (Cisplatin Resistant); design: species or system mice (murine leukemia); settings: IP, Days 3, 7, 11; for % T/C: best responses
[2] = tested on: P-388/Pt (Cisplatin Resistant); test: In vivo antitumor activity, P-388 (Lymphocytic Leukemia), P-388/Pt (Cisplatin Resistant); design: species or system mice (murine leukemia); settings: IP, Days 1, 5, 9; for % T/C: best responses
Description: as §3
^g Schedule: Days 1, 5, 9

[3] = tested on: L1210 and P388 murine leukemia cell lines; test: Antitumor activity in L1210 and P388 murine leukemia, in vitro and in vivo; settings: in vitro and in vivo test results
Procedure: as §1, §3
In Table 2, the ratio of median survival time of laboratory mice which had been treated with the test compound to untreated control animals is expressed as a percentage (%T/C values). […]

[4] = tested on: parent L1210 and P388 leukemia cell lines; test: In vivo activity against parent L1210 and P388 leukemia; design: species or system mice (murine leukemia)
Description: as §3
(§4) In Table 2, the ratio of median survival time of laboratory mice which had been treated with the test compound to untreated control animals is expressed as a percentage (%T/C values). Laboratory mice were implanted intraperitonealy with the L1210 murine leukemia cell line on Day 0 and treated with intraperitoneal injections of representative platinum complexes of the present invention on Days 3 and 7 at the dosages indicated. Data for the prior art complex cisplatin is included for comparison.

[5] = tested on: cisplatin-resistant cells; test: Activity against cisplatin-resistant cells in vitro and in vivo; design: species or system murine
Procedure: as §1, §2, §4

[6] = first pair of lines, 5.0 mg/kg/injection
[7] = second pair of lines, 5.0 mg/kg/injection
[8] = ID50 resistant line / ID50 normal line, 4320 min
[9] = first pair of lines, 3.7 mg/kg/injection
[10] = second pair of lines, 3.7 mg/kg/injection

SMILES: N.N.[Cl][Pt][Cl] [Cisplatin, cis-diaminedichloroplatinum(II), reference compound]
- ID50 (L1210S): 0.375 µg/mL
- ID50 (L1210PtR4): 7.84 µg/mL
- ID50 (L1210DDP5): 4.11 µg/mL
- ID50 (L1210DACH; L1210DACH): 0.52 µg/mL
- ID50 (P388S): 0.128 µg/mL
- ID50 (P388Pt4): 10.0 µg/mL
- 60 Day Survivors (L-1210 Leukemia; 4.0 mg/kg/injection): 1/6
- Log10 Kill Gross (L-1210 Leukemia; 4.0 mg/kg/injection): 9.4
- Log10 Kill Net (L-1210 Leukemia; 4.0 mg/kg/injection): 0.9
- MLS (median life span) (L-1210 Leukemia; 4.0 mg/kg/injection): 19.5 days
- Weight Change (L-1210 Leukemia; 4.0 mg/kg/injection): 1.0 grams
- % T/C (L-1210 Leukemia; 4.0 mg/kg/injection): 184%
- 60 Day Survivors (L-1210 Leukemia; 6.0 mg/kg/injection): 1/6
- Log10 Kill Gross (L-1210 Leukemia; 6.0 mg/kg/injection): 8.3
- Log10 Kill Net (L-1210 Leukemia; 6.0 mg/kg/injection): -0.1
- MLS (median life span) (L-1210 Leukemia; 6.0 mg/kg/injection): 18.5 days
- Weight Change (L-1210 Leukemia; 6.0 mg/kg/injection): -1.9 grams
- % T/C (L-1210 Leukemia; 6.0 mg/kg/injection): 175%
- 60 Day Survivors ([1]; 4.0 mg/kg/injection): 0/6
- Log10 Kill Gross ([1]; 4.0 mg/kg/injection): 0.7
- Log10 Kill Net ([1]; 4.0 mg/kg/injection): -2.5
- MLS (median life span) ([1]; 4.0 mg/kg/injection): 11.1 days
- % T/C ([1]; 4.0 mg/kg/injection): 109%
- 60 Day Survivors ([1]; 6.0 mg/kg/injection): 0/6
- Log10 Kill Gross ([1]; 6.0 mg/kg/injection): 1.5
- Log10 Kill Net ([1]; 6.0 mg/kg/injection): -2.4
- MLS (median life span) ([1]; 6.0 mg/kg/injection): 12.0 days
- Weight Change ([1]; 6.0 mg/kg/injection): -3.7 grams
- % T/C ([1]; 6.0 mg/kg/injection): 118%
- Log10 Kill Net [2, 6]: 6.8
- % T/C [2, 6]: 261%
- Log10 Kill Net [2, 7]: -1.5
- % T/C [2, 7]: 132%

SMILES: [Cl][Pt]1([Cl])[NH]C2CCC(CC2)[NH]1 [Example 1, [SP-4-2-(c-is)]-Dichloro(1,4-cyclohexanediamine-N,N')-platinum]
- ID50 (L1210S): 0.248 µg/mL
- Fold resistance (resistance ratio) (L1210PtR4; [8]): 4.9 fold
- ID50 (L1210PtR4): 1.21 µg/mL
- Fold resistance (resistance ratio) (L1210DDP5; [8]): 2.7 fold
- ID50 (L1210DDP5): 0.663 µg/mL
- cross resistance to Pt(DACH)Cl2-resistant L1210 cells in culture (L1210DACH): four
- Fold resistance (resistance ratio) (L1210DACH; ID50 resistant line / ID50 normal line, L1210DACH, 4320 min): 4.3 fold
- ID50 (L1210DACH; L1210DACH): 1.08 µg/mL
- ID50 (P388S): 0.047 µg/mL
- Fold resistance (resistance ratio) (P388Pt4; [8]): 30 fold
- ID50 (P388Pt4): 1.43 µg/mL
- 60 Day Survivors (L-1210 Leukemia; 0.8 mg/kg/injection): 0/6
- Log10 Kill Gross (L-1210 Leukemia; 0.8 mg/kg/injection): 3.4
- Log10 Kill Net (L-1210 Leukemia; 0.8 mg/kg/injection): -1.5
- MLS (median life span) (L-1210 Leukemia; 0.8 mg/kg/injection): 13.0 days
- % T/C (L-1210 Leukemia; 0.8 mg/kg/injection): 130%
- 60 Day Survivors (L-1210 Leukemia; 1.5 mg/kg/injection): 0/6
- Log10 Kill Gross (L-1210 Leukemia; 1.5 mg/kg/injection): 13.1
- Log10 Kill Net (L-1210 Leukemia; 1.5 mg/kg/injection): 4.6
- MLS (median life span) (L-1210 Leukemia; 1.5 mg/kg/injection): 23.0 days
- % T/C (L-1210 Leukemia; 1.5 mg/kg/injection): 217%
- 60 Day Survivors (L-1210 Leukemia; 3.0 mg/kg/injection): 1/6
- Log10 Kill Gross (L-1210 Leukemia; 3.0 mg/kg/injection): 11.5
- Log10 Kill Net (L-1210 Leukemia; 3.0 mg/kg/injection): 3.1
- MLS (median life span) (L-1210 Leukemia; 3.0 mg/kg/injection): 21.5 days
- % T/C (L-1210 Leukemia; 3.0 mg/kg/injection): 203%
- 60 Day Survivors (L-1210 Leukemia; 6.3 mg/kg/injection): 0/6
- Log10 Kill Gross (L-1210 Leukemia; 6.3 mg/kg/injection): 0.1
- Log10 Kill Net (L-1210 Leukemia; 6.3 mg/kg/injection): -1.9
- MLS (median life span) (L-1210 Leukemia; 6.3 mg/kg/injection): 10.7 days
- % T/C (L-1210 Leukemia; 6.3 mg/kg/injection): 101%
- 60 Day Survivors ([1]; 0.8 mg/kg/injection): 0/6
- Log10 Kill Gross ([1]; 0.8 mg/kg/injection): 2.1
- Log10 Kill Net ([1]; 0.8 mg/kg/injection): -2.2
- MLS (median life span) ([1]; 0.8 mg/kg/injection): 12.8 days
- % T/C ([1]; 0.8 mg/kg/injection): 126%
- 60 Day Survivors ([1]; 1.5 mg/kg/injection): 0/6
- Log10 Kill Gross ([1]; 1.5 mg/kg/injection): 4.5
- Log10 Kill Net ([1]; 1.5 mg/kg/injection): -1.7
- MLS (median life span) ([1]; 1.5 mg/kg/injection): 15.7 days
- % T/C ([1]; 1.5 mg/kg/injection): 154%
- 60 Day Survivors ([1]; 3.0 mg/kg/injection): 2/6
- Log10 Kill Gross ([1]; 3.0 mg/kg/injection): 5.5
- Log10 Kill Net ([1]; 3.0 mg/kg/injection): -1.0
- MLS (median life span) ([1]; 3.0 mg/kg/injection): 17.0 days
- % T/C ([1]; 3.0 mg/kg/injection): 167%
- 60 Day Survivors ([1]; 6.3 mg/kg/injection): 0/6
- Log10 Kill Gross ([1]; 6.3 mg/kg/injection): 0.1
- Log10 Kill Net ([1]; 6.3 mg/kg/injection): -2.7
- MLS (median life span) ([1]; 6.3 mg/kg/injection): 10.3 days
- % T/C ([1]; 6.3 mg/kg/injection): 101%
- Log10 Kill Net [2, 9]: 5.4
- % T/C [2, 9]: 234%
- Log10 Kill Net [2, 10]: 1.9
- % T/C [2, 10]: 177%
- antitumor activity, potency and response vs cisplatin [3]: superior to cisplatin both in potency and response
- effectiveness against parent L1210 and P388 leukemia in vivo vs cisplatin [4]: equally effective or superior to cisplatin
- cross resistance to cisplatin [5]: some degree of cross resistance to cisplatin
- effectiveness against cisplatin-resistant cells vs cisplatin [5]: more effective than cisplatin

SMILES: NC1CCCCC1N.[Cl][Pt][Cl] (stereo not drawn) [[Pt(trans-l-DACH)Cl2], [SP-4-2-(1R-trans)]-dichloro(1,2-cyclohexanediamine-N,N')platinum, reference compound]
- ID50 (L1210S): 0.059 µg/mL
- ID50 (L1210PtR4): 0.161 µg/mL
- ID50 (L1210DDP5): 0.164 µg/mL
- cross resistance to Pt(DACH)Cl2-resistant L1210 cells in culture (L1210DACH; 4320 min): 77 fold
- ID50 (L1210DACH; L1210DACH): 4.57 µg/mL
- ID50 (P388S): 0.077 µg/mL
- ID50 (P388Pt4): 0.83 µg/mL
